Activity calls are given as the source filed them. The rule behind the calls is not given here.
Experiments:
Plasmodium falciparum [1] = assay: microbe, parasite or virus in culture; details: W2, 48 h
Description: (§1) Antiplasmodial activity against chloroquine-resistant Plasmodium falciparum W2 after 48 hrs

Plasmodium falciparum [2] = assay: microbe, parasite or virus in culture; details: D6, 48 h
Description: (§2) Antiplasmodial activity against chloroquine-sensitive Plasmodium falciparum D6 after 48 hrs

Plasmodium falciparum [3] = details: W2
Description: as §1

Plasmodium falciparum [4] = details: D6
Description: as §2

| SMILES | IC50 (Plasmodium falciparum [1]) [nM] | IC50 (Plasmodium falciparum [2]) [nM] | Activity (Plasmodium falciparum [3]) | Activity (Plasmodium falciparum [4]) |
| --- | --- | --- | --- | --- |
| C[C@@H]1CC[C@H]2[C@@H](C)C(=O)O[C@@H]3O[C@@]4(C)CC[C@@H]1[C@]32OO4 [ARTEMISININ] | 30 | 40 | – | – |
| COc1ccc([C@H](CNC(=O)/C=C/c2ccccc2)C(=O)/C=C/c2ccccc2)cc1OC | 6100 | 4200 | – | – |
| COc1ccc(C(CNC(=O)/C=C/c2ccccc2)OC(C)=O)cc1OC (stereo not drawn) | – | – | inactive | inactive |
| COc1ccc(C(O)CNC(=O)/C=C/c2ccccc2)cc1OC (stereo not drawn) | – | – | inactive | inactive |

Source: ChEMBL document CHEMBL1141794, “Alkamides from the leaves of Zanthoxylum syncarpum” (J Nat Prod, 2005)
